For 55 molecules, EC50 and CC50 results are on record in ChEMBL document CHEMBL1156829 (Proc Natl Acad Sci U S A, 2008).

The structures appear in SMILES notation.

Series [1] relates to Plasmodium falciparum. Put plainly: NOVARTIS: Inhibition of Plasmodium falciparum 3D7 (drug-susceptible) proliferation in erythrocyte-based infection assay. It is filed as functional, organism-based. Conditions: Plasmodium falciparum, 3D7.
The subject of series [2] is Plasmodium falciparum. Put plainly: NOVARTIS: Inhibition of Plasmodium falciparum W2 (drug-resistant) proliferation in erythrocyte-based infection assay. The following applies: Plasmodium falciparum, W2; read-out: EC50. It is filed as functional, organism-based.
Series [3] in a line: NOVARTIS: Cytotoxicity against human hepatocellular carcinoma cell line (Huh7). Format: toxicity, cell-based, Huh-7. Conditions: Huh7 cells (hepatocellular carcinoma cell line).

For `OC(CNC1CCCCC1)Cn1c2ccc(Br)cc2c2cc(Br)ccc21` (stereo not given), the EC50 in series [1] is 451 nM; in series [2], 102 nM. This molecule showed a CC50 in series [3] of 6060 nM.
The matching figures for `CCCCCCCC(=O)N1CCN(CCN(Cc2ccc(F)cc2)C(=O)c2c(-c3c(F)cccc3Cl)noc2C)CC1`: 1760 nM, 1660 nM and greater than 100000 nM.
The matching figures for `Nc1ccc(-c2nc3cc(Oc4ccc5[nH]c(-c6ccc(N)cc6)nc5c4)ccc3[nH]2)cc1`: 683 nM, 357 nM and 21400 nM.
The matching figures for `COCCN1C(=O)C(O)=C(C(=O)c2ccccc2)C1c1ccccc1[N+](=O)[O-]` (stereo not given): greater than 12500 nM, 1710 nM and greater than 100000 nM.
`COc1cc2c(c(OC)c1CN1CCN(c3ccccc3)CC1)C(=O)c1ccccc1C2=O`: the concentration giving a half-maximal response (EC50) in series [1] was found to be 130 nM; in series [2], 166 nM. Also, the cytotoxic concentration (CC50) in series [3] is greater than 10000 nM.
The matching figures for `C=C[C@H]1CN2CC[C@H]1C[C@H]2[C@H](OC(=O)CC)c1ccnc2ccccc12`: 364 nM, 166 nM and greater than 10000 nM.
The matching figures for `N#Cc1c(-c2ccccc2)cc(N2CCN(Cc3ccc(Cl)cc3)CC2)n2c1nc1ccccc12`: 1120 nM, 1710 nM and greater than 100000 nM.
The matching figures for `COc1ccc(C=CC(=O)Nc2ccc3nc(N4CCN(C)CC4)cc(C)c3c2)cc1OC`: 708 nM, 946 nM and 55200 nM.
As to `Clc1ccc(NCn2nnc3ccccc32)nc1`, the figures for the EC50 in series [1] and in series [2] were greater than 8200 nM and 1690 nM, respectively. This molecule gave a CC50 in series [3] greater than 100000 nM.
The matching figures for `c1ccc(Cn2nnnc2CN2CCN(C(c3ccccc3)c3ccccc3)CC2)cc1`: 2870 nM, 1670 nM and greater than 100000 nM.
Take `CCOC(=O)c1c(C)n(-c2ccccc2)c2ccc(OC(=O)C3CC3)cc12`: the EC50 in series [1] came to 749 nM; in series [2] it was 1720 nM. The molecule further registered a CC50 in series [3] greater than 100000 nM.
The matching figures for `COCCNC(=O)C(c1ccc(C)cc1)N(Cc1ccccc1)C(=O)CCC(=O)Nc1nccs1` (stereo not given): greater than 4590 nM, 1720 nM and greater than 100000 nM.
Consider `CN(CCCNc1ccnc2cc(Cl)ccc12)C(=O)CC(C)(C)C`, for which the EC50 in series [1] came to 236 nM; in series [2], 173 nM. For the same molecule, in series [3], the CC50 is greater than 10000 nM.
The matching figures for `COc1ccc(-c2c[n+](Cc3ccc(Cl)c(Cl)c3)c3n2CCC3)cc1`: 537 nM, 858 nM and 49700 nM.
The matching figures for `Cc1ccccc1C[n+]1cc(-c2ccc(Cl)cc2)n2c1CCC2`: 1390 nM, 1720 nM and greater than 100000 nM.
In the case of `Nc1c(C(=O)Nc2ccc(F)cc2)sc2nc3c(c(-c4cccs4)c12)CCCC3`, the values for the EC50 in series [1] and in series [2] were 1130 nM and 1710 nM, respectively. This molecule had a CC50 in series [3] greater than 100000 nM.
The matching figures for `CCC(C)N1CCN(Cc2cccc(OC)c2OC)CC1` (stereo not given): greater than 1250 nM, greater than 169 nM and greater than 10000 nM.
The matching figures for `O=C(Cn1c(=O)oc2cc(S(=O)(=O)N3CCCC3)ccc21)Nc1cccnc1`: greater than 951 nM, 169 nM and greater than 10000 nM.
The matching figures for `CC(C)N(C(=O)Cn1ccc(=N)c2ccccc21)C(C)C`: 1240 nM, 1650 nM and greater than 100000 nM.
On to `CC(=O)N(C1=C(N2CCOCC2)C(=O)c2ccccc2C1=O)c1ccc(F)c(F)c1`, for which the concentration for a half-maximal effect (EC50) in series [1] is 74.3 nM; in series [2], 57.5 nM. This molecule also had a cytotoxic concentration (CC50) in series [3] of 3480 nM.
The matching figures for `N=c1n(CCN2CCCCC2)c2ccccc2n1CC(O)c1ccc(Cl)c(Cl)c1` (stereo not given): 52.8 nM, 224 nM and 12800 nM.
Consider `C[n+]1cccc2ccc3cccnc3c21`, for which the results for the half-maximal effective concentration (EC50) in series [1] and in series [2] were 66.4 nM and 140 nM, respectively. Besides, in series [3], the CC50 was greater than 8030 nM.
The matching figures for `COc1ccc(-c2n(CC(=O)OC3CC(C)CCC3C(C)C)c3ccccc3[n+]2C)cc1` (stereo not given): 391 nM, 233 nM and 13400 nM.
The matching figures for `OC(Cn1nnc2ccccc21)Cn1c2ccc(Br)cc2c2cc(Br)ccc21` (stereo not given): 3370 nM, 1350 nM and greater than 78000 nM.
Turning to `COc1cc(-c2nc(-c3cccc(Cl)c3)c(-c3ccccc3)[nH]2)cc(OC)c1O`, the EC50 worked out at 583 nM in series [1] and 749 nM in series [2]. Half-maximal cytotoxicity in series [3] (CC50) was put at 43200 nM.
The matching figures for `CC(C)CC(NC(=O)C(=Cc1ccco1)NC(=O)c1ccccc1)C(=O)OCc1ccccc1` (stereo not given): greater than 12500 nM, 1730 nM and greater than 100000 nM.
Take `CCOC(=O)C(=CNc1ccccc1[N+](=O)[O-])C(=O)OCC`: the values for the EC50 in series [1] and in series [2] were 7990 nM and 1730 nM, respectively. Also, in series [3], the CC50 was greater than 100000 nM.
The matching figures for `O=c1cccc2n1CC1CC2CN(Cc2cccc(O)c2)C1` (stereo not given): greater than 12500 nM, 1700 nM and greater than 100000 nM.
On to `CC(C)(C)CC(C)(C)Nc1c(-c2ccccc2OC(=O)C(c2ccccc2)c2ccccc2)nc2ccccn12`, for which the EC50 in series [1] was determined as 882 nM; in series [2], 36.5 nM. This molecule returned a CC50 in series [3] of 2150 nM.
`CCCC(C(=O)OCC)C(C)=NNc1ccccc1[N+](=O)[O-]` (stereo not given): the EC50 was 1270 nM in series [1] and 1670 nM in series [2]. This molecule also had a CC50 in series [3] greater than 100000 nM.
Consider `C[n+]1ccccc1/C=C/C1=C(c2ccccc2)Oc2ccccc2O1`, for which the values for the EC50 in series [1] and in series [2] were 133 nM and 249 nM, respectively. The same molecule came in with a CC50 in series [3] of 14900 nM.
The matching figures for `COC(=O)NCCNC(=O)COC(c1cccs1)c1cccnc1Cl` (stereo not given): 185 nM, 170 nM and greater than 10000 nM.
On to `CC(C)N(CCNc1ncnc2c1[nH]c1ccc(Cl)cc12)C(C)C`, for which the values for the EC50 in series [1] and in series [2] were 262 nM and 252 nM, respectively. In addition, it took 15200 nM to reach half-maximal cytotoxicity in series [3] (CC50).
The matching figures for `O=C(CN1CCCC1)Nc1nc(-c2ccc3c(c2)CCN3S(=O)(=O)c2ccccc2)cs1`: 468 nM, 1270 nM and greater than 76200 nM.
In the case of `CCOC(=O)c1ccc2c(c1)[n+](CC)c(/C=C/N(C)c1ccccc1)n2CC`, the values for the EC50 in series [1] and in series [2] were 272 nM and 588 nM, respectively. For the same molecule, the 50% cytotoxic concentration (CC50) in series [3] came out at 34400 nM.
The matching figures for `Cc1ccc(NC(=O)N2CCN(C(=O)c3nc(-c4ccccc4)nc(C)c3C(=O)OC(C)C)CC2C)cc1` (stereo not given): 441 nM, 171 nM and greater than 10000 nM.
Consider `CC(=O)N(C1=C(N(C)C)C(=O)c2ccccc2C1=O)c1ccc(F)c(F)c1`, for which the concentration for a half-maximal effect (EC50) in series [1] came out at 16.1 nM; in series [2], 41.1 nM. This molecule also yielded a CC50 in series [3] of 2360 nM.
The matching figures for `O=[N+]([O-])c1ccc(NCCNc2nc(N3CCCC3)nc3ccccc23)cc1`: 564 nM, 334 nM and 19200 nM.
The matching figures for `CC12CN(Cc3ccccc3)CC(C)(CN(Cc3cccc(Br)c3)C1)C2`: 3620 nM, 819 nM and 47200 nM.
The matching figures for `c1ccc(-c2c3c(cc4ccccc24)C[N+]2(CCCC2)C3)cc1`: 1340 nM, 1730 nM and greater than 100000 nM.
On to `CCOC(=O)c1sc(-c2cnccc2C(F)(F)F)nc1C`, for which the figures for the EC50 in series [1] and in series [2] were greater than 912 nM and 172 nM, respectively. This molecule gave a CC50 in series [3] greater than 10000 nM.
On to `CCc1cccc(NC(=S)N2CCCC2c2ccccc2C(F)(F)F)c1` (stereo not given), for which the EC50 in series [1] came to 408 nM; in series [2], 170 nM. In series [3], this molecule gave a CC50 greater than 10000 nM.
The matching figures for `OCCC1CN(Cc2cccc(Cl)c2)CCN1Cc1ccccc1` (stereo not given): greater than 12500 nM, 1730 nM and greater than 100000 nM.
The matching figures for `c1ccc(Oc2cccc(CN3CCc4nc(N5CCCCC5)sc4C3)c2)cc1`: 294 nM, 173 nM and greater than 10000 nM.
`Cc1ncc(CCCCN(C)C)c2c1[nH]c1ccccc12`: the EC50 in series [1] worked out at 472 nM; in series [2], 325 nM. Also, in series [3], the cytotoxic concentration (CC50) turned out to be 18800 nM.
The matching figures for `Cc1ccc(NC2=C(c3ccc(C(F)(F)F)cc3)C(=O)c3ccccc32)cc1C`: 1240 nM, 1690 nM and greater than 100000 nM.
Turning to `Cc1cc(N2CCN(C3CCCC3)CC2)n2c(nc3ccccc32)c1C#N`, the EC50 in series [1] came out at 743 nM; in series [2], 1670 nM. This molecule yielded a 50% cytotoxic concentration (CC50) in series [3] greater than 100000 nM.
As for `COc1ccccc1N(CN1C(=O)c2ccc(Br)cc2C1=O)C(C)=O`, the EC50 in series [1] was greater than 1250 nM; in series [2] it was greater than 171 nM. In series [3], this molecule came in with a CC50 greater than 10000 nM.
For the molecule `CCC[n+]1cccc2ccc3cccnc3c21`, the EC50 in series [1] is 210 nM; in series [2], 756 nM. The molecule further returned a CC50 in series [3] of 44300 nM.
The matching figures for `O=C(Nc1cc(Cl)cc(Cl)c1)C1C2C=CC3(O2)C1C(=O)N(CCC1=CCCCC1)C3C(=O)NC1CCCCC1` (stereo not given): greater than 11000 nM, 1710 nM and greater than 100000 nM.
The matching figures for `Cc1ccnc(NS(=O)(=O)c2ccc(NC(=O)C(C)C)cc2)n1`: greater than 6150 nM, 1690 nM and greater than 100000 nM.
For the molecule `c1ccc(Nc2nc(NCC3CCCO3)c3ccccc3n2)cc1` (stereo not given), the concentration for a half-maximal effect (EC50) in series [1] is 114 nM; in series [2], 169 nM. The CC50 in series [3] is greater than 10000 nM.
Regarding `Clc1ccc(OCc2nc3ccccc3n2CCc2ccccc2)cc1`, the EC50 in series [1] is greater than 720 nM; in series [2] it was 165 nM. Moreover, the CC50 in series [3] was greater than 10000 nM.
The matching figures for `CCCCCCCc1cc(O)c2c3c(c(=O)oc2c1)CCC(C)C3` (stereo not given): 1210 nM, 1720 nM and greater than 100000 nM.
Take `CC1=[N+](CC(=O)c2ccc(C)cc2)CCn2c(C)ccc21`: the EC50 was found to be 1050 nM in series [1] and 1660 nM in series [2]. The molecule further had a CC50 in series [3] greater than 100000 nM.
